Experimental data as given in patent US11078228B2, “Ectonucleotidase inhibitors and methods of use thereof” (Calithera Biosciences, Inc., priority 2018, dated 2021).

What follows are compounds tested against recombinant CD73 (Homo sapiens (Human), UniProt P21589) (assay: Assay 2: Inhibition of the CD73 enzyme in vitro (0.05 nM CD73, 1 hour 37° C., Malachite Green)). Conditions: 0.05 nM CD73, 50 μM AMP, 1 hour at 37° C.
recombinant CD73, sequence (P21589 27-547): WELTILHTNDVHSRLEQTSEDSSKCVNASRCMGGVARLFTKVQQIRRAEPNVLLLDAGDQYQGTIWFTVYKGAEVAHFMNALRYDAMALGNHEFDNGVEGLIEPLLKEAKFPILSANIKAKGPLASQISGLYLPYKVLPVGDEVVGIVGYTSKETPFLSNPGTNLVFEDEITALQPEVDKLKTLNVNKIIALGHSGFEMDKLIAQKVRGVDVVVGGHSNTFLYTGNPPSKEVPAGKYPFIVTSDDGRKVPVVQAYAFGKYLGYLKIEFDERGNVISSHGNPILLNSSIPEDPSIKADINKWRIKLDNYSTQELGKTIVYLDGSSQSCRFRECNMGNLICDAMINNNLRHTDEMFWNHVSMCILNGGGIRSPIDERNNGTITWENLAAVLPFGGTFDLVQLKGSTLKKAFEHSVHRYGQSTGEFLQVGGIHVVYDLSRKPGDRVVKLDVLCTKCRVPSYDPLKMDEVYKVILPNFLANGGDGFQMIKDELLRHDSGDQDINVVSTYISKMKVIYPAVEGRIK
Type: biochemical
Method: For measurements of soluble CD73 enzyme activity, recombinant CD73 was obtained from R&D Systems, Cat. No. 5795-EN-010. […] Reactions were allowed to proceed for 1 hour at 37° C. before the addition of 100 μL Malachite Green (Cell Signaling Technology, Cat. No. 12776). After 5 minutes at room temperature, absorbance at 630 nm was determined on a microplate spectrophotometer. The concentration of inorganic phosphate was determined using a phosphate standard curve.
`C#C[C@@]1(O)[C@@H](COC(Cc2ccccc2)(C(=O)O)C(=O)O)O[C@@H](n2cnc3c(-c4ccccc4)nc(Cl)nc32)[C@@H]1O` [Example 14, 2-benzyl-2-(((2R,3S,4R,5R)-5-(2-chloro-6-phenyl-9H-purin-9-yl)-3-ethynyl-3,4-dihydroxytetrahydrofuran-2-yl)methoxy)malonic acid] showed an IC50 of 0.6 nM. `C#C[C@@]1(O)[C@@H](COC(Cc2ccccc2)(C(=O)O)C(=O)O)O[C@@H](n2cnc3c(N(C)CCOC)nc(Cl)nc32)[C@@H]1O` [Example 39, 2-benzyl-2-(((2R,3S,4R,5R)-5-(2-chloro-6-((2-methoxyethyl)-(methyl)amino)-9H-purin-9-yl)-3-ethynyl-3,4-dihydroxytetrahydrofuran-2-yl)methoxy)malonic acid] was tested, and the IC50 was 3 nM. Compound `C#C[C@@]1(O)[C@@H](COC(Cc2ccccc2)(C(=O)O)C(=O)OCC)O[C@@H](n2cnc3c(NCc4ccccc4Cl)nc(Cl)nc32)[C@@H]1O` (stereo partly drawn) [Example 108, 2-benzyl-2-(((2R,3S,4R,5R)-5-(2-chloro-6-((2-chlorobenzyl)amino)-9H-purin-9-yl)-3-ethynyl-3,4-dihydroxytetrahydrofuran-2-yl)methoxy)-3-ethoxy-3-oxopropanoic acid] has an IC50 of 3 nM. In the case of `C#C[C@@]1(O)[C@@H](COC(Cc2ccccc2)(C(=O)O)C(=O)O)O[C@@H](n2cnc3ccc(C(F)(F)F)nc32)[C@@H]1O` [Example 125, 2-benzyl-2-(((2R,3S,4R,5R)-3-ethynyl-3,4-dihydroxy-5-(5-(trifluoromethyl)-3H-imidazo[4,5-b]pyridin-3-yl)tetrahydrofuran-2-yl)methoxy)malonic acid], the IC50 is reported as 235 nM. For `C#C[C@@]1(O)[C@@H](COC(Cc2ccc(N3CCCCC3=O)cc2)(C(=O)O)C(=O)O)O[C@@H](n2cnc3c(N)nc(Cl)nc32)[C@@H]1O` [Compound 10, 2-(((2R,3S,4R,5R)-5-(6-amino-2-chloro-9H-purin-9-yl)-3-ethynyl-3,4-dihydroxytetrahydrofuran-2-yl)methoxy)-2-(4-(2-oxopiperidin-1-yl)benzyl)malonic acid], the IC50 was 0.26 nM. In the case of `C#C[C@@]1(O)[C@@H](COC(Cc2ccccc2)(C(=O)O)C(=O)O)O[C@@H](n2cnc3c(NCCCO)nc(Cl)nc32)[C@@H]1O` [Example 34, 2-benzyl-2-(((2R,3S,4R,5R)-5-(2-chloro-6-((3-hydroxypropyl)amino)-9H-purin-9-yl)-3-ethynyl-3,4-dihydroxytetrahydrofuran-2-yl)methoxy)malonic acid], the IC50 is reported as 2 nM. For `C#C[C@@]1(O)[C@@H](COC(Cc2ccccc2)(C(=O)O)C(=O)O)O[C@@H](n2cnc3c(NCc4cccnc4)nc(Cl)nc32)[C@@H]1O` [Example 84, 2-benzyl-2-(((2R,3S,4R,5R)-5-(2-chloro-6-((pyridin-3-ylmethyl)amino)-9H-purin-9-yl)-3-ethynyl-3,4-dihydroxytetrahydrofuran-2-yl)methoxy)malonic acid], the IC50 was 3 nM. In the case of `C#C[C@@]1(O)[C@@H](CO[C@](Cc2ccc(N3CCCNC3=O)cc2)(C(=O)O)C(=O)OCC)O[C@@H](n2cnc3c(N)nc(Cl)nc32)[C@@H]1O` (single isomer, unassigned) [Example 164], the IC50 is reported as 261 nM. `C#C[C@@]1(O)[C@@H](COC(Cc2ccccc2)(C(=O)O)C(=O)O)O[C@@H](n2cnc3c(NCC(=O)O)nc(Cl)nc32)[C@@H]1O` [Example 76, 2-benzyl-2-(((2R,3S,4R,5R)-5-(6-((carboxymethyl)amino)-2-chloro-9H-purin-9-yl)-3-ethynyl-3,4-dihydroxytetrahydrofuran-2-yl)methoxy)malonic acid] showed an IC50 of 6 nM. Compound `C#C[C@@]1(O)[C@@H](COC(Cc2ccc(-c3ccc[nH]c3=O)cc2)(C(=O)O)C(=O)O)O[C@@H](n2cnc3c(NC)nc(Cl)nc32)[C@@H]1O` [Example 147, 2-(((2R,3S,4R,5R)-5-(2-chloro-6-(methylamino)-9H-purin-9-yl)-3-ethynyl-3,4-dihydroxytetrahydrofuran-2-yl)methoxy)-2-(4-(2-oxo-1,2-dihydropyridin-3-yl)benzyl)malonic acid] has an IC50 of 0.58 nM. Work on `C#C[C@@]1(O)[C@@H](COC(Cc2ccccc2)(C(=O)O)C(=O)O)O[C@@H](n2cnc3c(-c4cnn(S(=O)(=O)c5ccc(C)cc5)c4)nc(Cl)nc32)[C@@H]1O` [Example 159, 2-benzyl-2-(((2R,3S,4R,5R)-5-(2-chloro-6-(1-tosyl-1H-pyrazol-4-yl)-9H-purin-9-yl)-3-ethynyl-3,4-dihydroxytetrahydrofuran-2-yl)methoxy)malonic acid] yielded an IC50 of 476 nM. In the case of `C#C[C@@]1(O)[C@@H](COC(Cc2ccc(N3CCCNC3=O)cc2)(C(=O)O)C(=O)O)O[C@@H](n2ccc(=O)[nH]c2=O)[C@@H]1O` [Example 134, 2-(((2R,3S,4R,5R)-5-(2,4-dioxo-3,4-dihydropyrimidin-1(2H)-yl)-3-ethynyl-3,4-dihydroxytetrahydrofuran-2-yl)methoxy)-2-(4-(2-oxotetrahydropyrimidin-1 (2H)-yl)benzyl)malonic acid], the IC50 is reported as 16 nM. Compound `C#C[C@@]1(O)[C@@H](COC(Cc2ccc(N3CCCN(C)C3=O)cc2)(C(=O)O)C(=O)O)O[C@@H](n2cnc3c(NC)nc(Cl)nc32)[C@@H]1O` [Example 148, 2-(((2R,3S,4R,5R)-5-(2-chloro-6-(methylamino)-9H-purin-9-yl)-3-ethynyl-3,4-dihydroxytetrahydrofuran-2-yl)methoxy)-2-(4-(3-methyl-2-oxotetrahydropyrimidin-1 (2H)-yl)benzyl)malonic acid] has an IC50 of 0.08 nM. `Nc1nc(Cl)nc2c1ncn2[C@@H]1O[C@H](COC(Cc2ccccc2)(C(=O)O)C(=O)O)[C@](O)(C#CC2CC2)[C@H]1O` [Compound 4, 2-(((2R,3S,4R,5R)-5-(6-amino-2-chloro-9H-purin-9-yl)-3-(cyclopropylethynyl)-3,4-dihydroxytetrahydrofuran-2-yl)methoxy)-2-benzylmalonic acid] gave an IC50 of 0.5 nM. With `C#C[C@@]1(O)[C@@H](COC(Cc2ccccc2)(C(=O)O)C(=O)O)O[C@@H](n2cnc3c(N4CCC[C@H]4CO)nc(Cl)nc32)[C@@H]1O` [Example 104, 2-benzyl-2-(((2R,3S,4R,5R)-5-(2-chloro-6-((S)-2-(hydroxymethyl)-pyrrolidin-1-yl)-9H-purin-9-yl)-3-ethynyl-3,4-dihydroxytetrahydrofuran-2-yl)methoxy)malonic acid] the IC50 was 2 nM. `C#C[C@@]1(O)[C@@H](COC(Cc2ccc(N3CCCNC3=O)cc2)(C(=O)O)C(=O)O)O[C@@H](n2cnc3c(NCC4CC4)nc(Cl)nc32)[C@@H]1O` [Example 136, 2-(((2R,3S,4R,5R)-5-(2-chloro-6-((cyclopropylmethyl)amino)-9H-purin-9-yl)-3-ethynyl-3,4-dihydroxytetrahydrofuran-2-yl)methoxy)-2-(4-(2-oxotetrahydropyrimidin-1(2H)-yl)benzyl)malonic acid] was tested, and the IC50 was 0.24 nM. Work on `C#C[C@@]1(O)[C@@H](COC(Cc2ccc(OC(F)(F)F)cc2)(C(=O)O)c2cscn2)O[C@@H](n2cnc3c(NC(C)C)nc(Cl)nc32)[C@@H]1O` (stereo partly drawn) [Example 174, 2-(((2R,3S,4R,5R)-5-(2-chloro-6-(isopropylamino)-9H-purin-9-yl)-3-ethynyl-3,4-dihydroxytetrahydrofuran-2-yl)methoxy)-2-(thiazol-4-yl)-3-(4-(trifluoromethoxy)phenyl)propanoic acid] yielded an IC50 of 17 nM. With `C#C[C@@]1(O)[C@@H](COC(Cc2ccccc2)(C(=O)O)C(=O)O)O[C@@H](n2cnc3c(N[C@@H]4CCc5ccccc54)nc(Cl)nc32)[C@@H]1O` [Example 69, 2-benzyl-2-(((2R,3S,4R,5R)-5-(2-chloro-6-(((R)-2,3-dihydro-1H-inden-1-yl)amino)-9H-purin-9-yl)-3-ethynyl-3,4-dihydroxytetrahydrofuran-2-yl)methoxy)-malonic acid] the IC50 was 3 nM. Work on `C#C[C@@]1(O)[C@@H](COC(Cc2ccccc2)(C(=O)O)C(=O)O)O[C@@H](n2cnc3c(N)nc(C(N)=O)nc32)[C@@H]1O` [Example 122, 2-(((2R,3S,4R,5R)-5-(6-amino-2-carbamoyl-9H-purin-9-yl)-3-ethynyl-3,4-dihydroxytetrahydrofuran-2-yl)methoxy)-2-benzylmalonic acid] yielded an IC50 of 40 nM. `C#C[C@@]1(O)[C@@H](COC(Cc2ccccc2)(C(=O)O)C(=O)O)O[C@@H](n2cnc3c(N(C)C4CC(O)C4)nc(Cl)nc32)[C@@H]1O` (stereo partly drawn) [Example 48, 2-benzyl-2-(((2R,3S,4R,5R)-5-(2-chloro-6-((3-hydroxycyclobutyl)-(methyl)amino)-9H-purin-9-yl)-3-ethynyl-3,4-dihydroxytetrahydrofuran-2-yl)methoxy)malonic acid] was tested, and the IC50 was 0.5 nM. In the case of `CC[C@@]1(O)[C@@H](COC(Cc2ccccc2)(C(=O)O)C(=O)O)O[C@@H](n2cnc3c(N)nc(Cl)nc32)[C@@H]1O` [Example 56, 2-(((2R,3S,4R,5R)-5-(6-amino-2-chloro-9H-purin-9-yl)-3-ethyl-3,4-dihydroxytetrahydrofuran-2-yl)methoxy)-2-benzylmalonic acid], the IC50 is reported as > 200 nM. `C#C[C@@]1(O)[C@@H](COC(Cc2ccc(N3CCCNC3=O)cc2)(C(=O)O)C(=O)O)O[C@@H](n2cc(C)c(=O)[nH]c2=O)[C@@H]1O` [Example 133, 2-(((2R,3S,4R,5R)-3-ethynyl-3,4-dihydroxy-5-(5-methyl-2,4-dioxo-3,4-dihydropyrimidin-1 (2H)-yl)tetrahydrofuran-2-yl)methoxy)-2-(4-(2-oxotetrahydropyrimidin-1 (2H)-yl)benzyl)malonic acid] showed an IC50 of 7 nM. `C#C[C@@]1(O)[C@@H](COC(Cc2ccc(-c3cccn(COC)c3=O)cc2)(C(=O)O)C(=O)O)O[C@@H](n2cnc3c(N)nc(Cl)nc32)[C@@H]1O` [Compound 11, 2-(((2R,3S,4R,5R)-5-(6-amino-2-chloro-9H-purin-9-yl)-3-ethynyl-3,4-dihydroxytetrahydrofuran-2-yl)methoxy)-2-(4-(1-(methoxymethyl)-2-oxo-1,2-dihydropyridin-3-yl)benzyl)malonic acid] was tested, and the IC50 was 0.06 nM.
